The values that follow come from patent US9249148B2, “Tris(hetero)arylpyrazoles and use thereof” (AICURIS GMBH & CO. KG, priority 2012, dated 2016).

Common to all, as to type: cell-based
The subject of one test is HIV-1NL4-3 wildtype. Put plainly: Luminescence Reduction Assay, luciferase reporter virus in MT4 cells. Conditions: Human immunodeficiency virus 1, MT4, read-out: EC50 (μM) MT4 cells HIV-1NL4-3 wildtype 2% FBS. The text has this: (§1) For this assay, HIV-1NL4-3 reporter viruses are used which carry the luciferase164 gene (lu164) in place of the nef gene. The viruses are generated by transfection of 293T cells with the corresponding proviral pNL4-3 plasmid (Lipofectamine Reagent, Invitrogen, Karlsruhe, Germany). Starting from the proviral plasmid DNA, viruses with defined resistance mutations (single or combined) are produced in the reverse transcriptase gene using the “QuikChange II XL Site-Directed Mutagenesis Kit” (Stratagene, Cedar Creek, Tex., USA). Resistance mutations include, among others: L74V, A98G, A98S, L100I, K101E, K103N, V106A, V106I, V106M, V108I, V108A, E138K, V179I, V179D, V179E, Y181C, Y181I, Y188L, G190A, G1905, H221Y, P225H, F227C, F227L, F227V, M230I, M230L, L234I, P236L, N348I, T369A, T369I, T369V. MT4 cells infected with these reporter viruses (NIH AIDS Research and Reference Reagent Program) secrete luciferase into the medium, which enables the luminometric quantification of the virus replication.
(§2) For starting a 96-well MTP, 3 million MT4 cells are pelleted, suspended in 1 ml RPMI 1640 medium without phenol red (Invitrogen, Karlsruhe, Germany)/10% FBS/2 mM L-glutamine/1% Pen/Strep (Invitrogen, Karlsruhe, Germany), and incubated for 2 hours at 37° C. with a suitable quantity of the relevant HIV-1NL4-3 reporter virus (pellet infection). Non-adsorbed viruses are then washed out, and the infected cells are pelleted again and suspended in 8 ml RPMI 1640 medium without phenol red/2% or 10% FBS/2 mM L-glutamine/1% Pen/Strep. From this, 90 μl per well is pipetted into a white 96-well MTP to 10 μl of test substance at a suitable level of dilution. In order to avoid edge effects, the edge wells of the MTP are not used for substance dilutions. The second vertical row of the MTP contains only infected cells (virus control) and the eleventh vertical row only non-infected cells (cell control), each in RPMI 1640 medium without phenol red/2% or 10% FBS/2 mM L-glutamine/1% Pen/Strep. The remaining wells of the MTP contain the compounds in accordance with the invention in various concentrations, starting from the third vertical row, from which the test substances are diluted in 3-step sequences up to the tenth vertical row by a factor of 3^7. The test substances are dissolved in DMSO; the final DMSO concentration in the test formulation is 1%.
For orientation: A reporter such as luciferase makes a cellular process visible.

Another test has as its system HIV-1NL4-3 K103N-Y181C. Put plainly: Luminescence Reduction Assay, luciferase reporter virus with resistance mutations in MT4 cells. As to conditions: Human immunodeficiency virus 1, MT4, read-out: EC50 (μM) MT4 cells HIV-1NL4-3 K103N-Y181C 2% FBS.
Text: as §1, §2

The next test concerns HIV-1LAI wildtype. Put plainly: alamarBlue Viability Assay with HIV-1LAI-infected MT4 cells. As to conditions: Human immunodeficiency virus 1, 10% FBS. On the procedure: For starting a 96-well MTP, 3 million PBLs are pelleted, suspended in 1 ml RPMI 1640 medium/10% FBS/2 mM L-glutamine/1% Pen/Strep and incubated for 2 hours at 37° C. with a suitable quantity of the relevant HIV-1LAI (NIH AIDS Research & Reference Reagent Program, Germantown, USA) (pellet infection). Non-adsorbed viruses are then washed out, and the infected cells pelleted again and suspended in 18 ml RPMI 1640 medium/10% FBS/2 mM L-glutamine/1% Pen/Strep/Interleukin-2 (40 U/ml). From this, 180 μl per well is pipetted into a 96-well MTP to 20 μl of test substance at a suitable level of dilution. Alternatively, the HIV is added after preparation of the substance dilutes in the MTP together with the cells, and is not washed out (supernatant infection). In order to avoid edge effects, the edge wells of the MTP are not used for substance dilutions. The second vertical row of the MTP contains only infected cells (virus control) and the eleventh vertical row only non-infected cells (cell control), each in RPMI 1640 medium/10% FBS/2 mM L-glutamine/1% Pen/Strep/Interleukin-2 (40 U/ml). The remaining wells of the MTP contain the compounds in accordance with the invention in various concentrations, starting from the third vertical row, from which the test substances are diluted in 3-step sequences up to the tenth vertical row by a factor of 3^7. The test substances are dissolved in DMSO; the final DMSO concentration in the test preparation is 1%. The test samples are incubated for 5 days at 37° C./5% CO2. After 5 to 7 days, 50 μl of cell-free supernatant is removed from each well to determine its p24 content using p24 ELISA (HIV-1 p24CA Antigen Capture Assay Kit, NCI-Frederick Cancer Research and Development Center, Frederick, USA). From the resulting values of the photometric analysis (450/620 nm), the EC50 values of the test substances are determined from the resulting dose-response curves using the Prism4 software (GraphPad, San Diego, Calif.) as the concentration of treated infected cells, where the p24 quantity is 50% of the untreated infected cells.
Alternatively, MT4 cells are used in place of PBLs for testing the test substances. HIV-1LAI-infected MT4 cells (MOI 0.01, supernatant infection) are incubated in accordance with the procedure described above in RPMI 1640 medium using 2% or 10% FKS/2 mM L-glutamine/1% Pen/Strep in the presence of the test substances for 5 days at 37° C./5% CO2 (10 μl diluted substance and 90 μl cells/virus per well). 10 μl alamarBlue (Invitrogen, Karlsruhe, Germany) is then added per well and the MTPs are incubated for 3 hours at 37° C. before fluorimetric evaluation is performed (544/590 nm). Using quattroWorkflow software (Quattroresearch, Martinsried, Germany), the EC50 values of the test substances are determined from the resulting dose-response curves as the concentration of treated infected cells in which the fluorescence is 50% of that of the untreated, non-infected cells.
(In general: Alamar Blue is a resazurin reagent that responds to reducing activity.)

On to `O=C1NCc2c1ccnc2-c1cc(-c2cc(Br)cc(OC(F)F)c2)n(-c2cccnc2)n1` [Example 19, 4-{5-[3-bromo-5-(difluoromethoxy)phenyl]-1-(pyridine-3-yl)-1H-pyrazole-3-yl}-2,3-dihydro-1H-pyrrolo[3,4-c]pyridine-1-one], for which the EC50 – broadly, the concentration at which the effect is half-maximal – was 0.0003 µM in the test on HIV-1NL4-3 wildtype, 0.0019 µM in the test on HIV-1NL4-3 K103N-Y181C and 0.0028 µM in the test on HIV-1LAI wildtype.

As for `O=C1NCc2c1ccnc2-c1cc(-c2cc(Cl)cc(OC(F)(F)F)c2)n(-c2ccc(F)c(Cl)c2)n1` [Example 9, 4-{1-(3-chloro-4-fluorophenyl)-5-[3-chloro-5-(trifluoromethoxy)phenyl]-1H-pyrazole-3-yl}-2,3-dihydro-1H-pyrrolo[3,4-c]pyridine-1-one], the figures for the EC50 with HIV-1NL4-3 wildtype, with HIV-1NL4-3 K103N-Y181C and in the test on HIV-1LAI wildtype were 0.0128 µM, 0.0176 µM and 0.0768 µM, respectively.

Consider `O=c1[nH][nH]c2c(-c3cc(-c4cc(F)cc(Cl)c4)n(-c4ccc(F)c(Cl)c4)n3)cccc12` [Example 29], for which the EC50 in the test with HIV-1NL4-3 wildtype was determined as 0.39 µM; with HIV-1NL4-3 K103N-Y181C, 1.22 µM; in the test on HIV-1LAI wildtype, 2.06 µM.

For `O=C1NCc2c1ccnc2-c1cc(-c2cccc(Cl)c2)n(-c2cccc(C(F)(F)F)c2)n1` [Example 37], the results for the EC50 with HIV-1NL4-3 wildtype, in the test on HIV-1NL4-3 K103N-Y181C and in the test with HIV-1LAI wildtype were 0.0288 µM, 0.148 µM and 0.0835 µM, respectively.

With `O=C1NCc2c1ccnc2-c1cc(-c2cc(Br)cc(OC(F)F)c2)n(-c2ccnc(Cl)c2)n1` [Example 20, 4-{5-[3-bromo-5-(difluoromethoxy)phenyl]-1-(2-chloropyridine-4-yl)-1H-pyrazole-3-yl}-2,3-dihydro-1H-pyrrolo[3,4-c]pyridine-1-one], the EC50 in the test with HIV-1NL4-3 wildtype is 0.001 µM; in the test on HIV-1NL4-3 K103N-Y181C, 0.004 µM; in the test on HIV-1LAI wildtype it was 0.0118 µM.
